This note sets out measurements from ChEMBL document CHEMBL1148566, “Stereoselective synthesis and glycosidase inhibitory activity of 3,4-dihydroxy-pyrrolidin-2-one, 3,4-dihydroxy-piperidin-2-one and 1,2-dihydroxy-pyrrolizidin-3-one” (Bioorg Med Chem Lett, 2006).

The source made the active and inactive calls. The rule behind the calls is not given here.

Assay [1] has as its target T1, Alpha-galactosidase (Escherichia coli K-12) (UniProt P06720).
T1 sequence (whole entry): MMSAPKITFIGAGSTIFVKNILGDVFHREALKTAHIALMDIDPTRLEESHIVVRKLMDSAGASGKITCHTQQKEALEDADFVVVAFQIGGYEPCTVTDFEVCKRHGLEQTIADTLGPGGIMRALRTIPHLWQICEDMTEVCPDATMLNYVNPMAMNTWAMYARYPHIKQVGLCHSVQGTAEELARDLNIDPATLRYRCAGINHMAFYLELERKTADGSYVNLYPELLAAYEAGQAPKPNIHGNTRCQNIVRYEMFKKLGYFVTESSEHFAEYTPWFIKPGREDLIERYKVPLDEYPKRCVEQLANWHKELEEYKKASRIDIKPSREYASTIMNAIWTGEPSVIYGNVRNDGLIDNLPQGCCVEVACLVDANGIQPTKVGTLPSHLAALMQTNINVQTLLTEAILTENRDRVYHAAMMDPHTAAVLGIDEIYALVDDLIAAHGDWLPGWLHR
Nature of the assay: Inhibitory activity against alpha-galactosidase in Escherichia coli at 1 mM.

Assay [2] has as its target T2, Beta-galactosidase/ beta-glucuronidase (Aspergillus oryzae (strain ATCC 42149 / RIB 40)) (UniProt Q2TXB7).
T2 sequence (whole entry): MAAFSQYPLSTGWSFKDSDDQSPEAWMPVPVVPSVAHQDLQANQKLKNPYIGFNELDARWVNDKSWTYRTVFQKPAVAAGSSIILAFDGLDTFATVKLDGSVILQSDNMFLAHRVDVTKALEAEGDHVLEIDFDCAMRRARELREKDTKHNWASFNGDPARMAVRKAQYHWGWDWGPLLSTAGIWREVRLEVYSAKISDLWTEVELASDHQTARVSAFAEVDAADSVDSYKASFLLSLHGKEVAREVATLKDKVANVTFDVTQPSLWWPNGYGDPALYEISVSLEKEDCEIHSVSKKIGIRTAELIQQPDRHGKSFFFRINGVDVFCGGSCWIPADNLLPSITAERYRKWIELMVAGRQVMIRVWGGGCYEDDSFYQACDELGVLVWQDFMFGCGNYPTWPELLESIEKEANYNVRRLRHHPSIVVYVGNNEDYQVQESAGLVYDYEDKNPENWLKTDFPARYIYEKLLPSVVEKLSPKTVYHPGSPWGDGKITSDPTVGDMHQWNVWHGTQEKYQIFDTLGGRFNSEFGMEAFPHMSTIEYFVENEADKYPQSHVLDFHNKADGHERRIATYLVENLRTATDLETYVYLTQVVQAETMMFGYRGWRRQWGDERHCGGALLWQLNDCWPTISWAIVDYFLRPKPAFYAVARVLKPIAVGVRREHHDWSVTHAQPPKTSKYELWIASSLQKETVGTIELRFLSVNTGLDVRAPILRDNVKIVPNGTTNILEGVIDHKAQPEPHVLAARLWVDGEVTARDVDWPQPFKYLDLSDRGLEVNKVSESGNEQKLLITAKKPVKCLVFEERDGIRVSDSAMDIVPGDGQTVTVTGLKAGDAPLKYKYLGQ
Nature of the assay: Inhibitory activity against beta-galactosidase in Aspergillus oryzae at 1 mM.

The subject of assay [3] is Beta-hexosaminidase (Bos taurus). Nature of the assay: Inhibitory activity against beta-N-acetylglucosaminidase in bovine kidney at 1 mM.
Assay [4] in a line: Inhibitory activity against beta-mannosidase in Helix pomatia at 1 mM.
For assay [5], the target named is T3, Tissue alpha-L-fucosidase (Bos taurus) (UniProt Q2KIM0).
T3 sequence (whole entry): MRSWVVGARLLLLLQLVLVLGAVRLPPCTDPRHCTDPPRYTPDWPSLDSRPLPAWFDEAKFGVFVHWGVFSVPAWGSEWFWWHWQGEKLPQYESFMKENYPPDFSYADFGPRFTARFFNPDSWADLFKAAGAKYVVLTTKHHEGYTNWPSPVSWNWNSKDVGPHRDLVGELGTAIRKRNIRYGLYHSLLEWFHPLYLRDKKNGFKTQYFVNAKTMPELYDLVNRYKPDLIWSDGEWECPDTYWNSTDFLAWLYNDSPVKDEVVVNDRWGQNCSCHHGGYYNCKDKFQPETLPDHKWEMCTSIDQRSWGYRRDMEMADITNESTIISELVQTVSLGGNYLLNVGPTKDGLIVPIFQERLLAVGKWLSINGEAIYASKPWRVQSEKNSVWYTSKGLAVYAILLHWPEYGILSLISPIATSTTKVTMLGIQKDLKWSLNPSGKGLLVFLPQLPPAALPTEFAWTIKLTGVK
Nature of the assay: Inhibitory activity against alpha-L-fucosidase in bovine brain at 1 mM.

Assay [6] concerns the target Glucoamylase (Aspergillus niger) (UniProt P69328). Nature of the assay: Inhibitory activity against amyloglucosidase in Aspergillus niger at 1 mM.
Assay [7] deals with T4, Beta-galactosidase (Bos taurus) (UniProt Q58D55).
T4 sequence (whole entry): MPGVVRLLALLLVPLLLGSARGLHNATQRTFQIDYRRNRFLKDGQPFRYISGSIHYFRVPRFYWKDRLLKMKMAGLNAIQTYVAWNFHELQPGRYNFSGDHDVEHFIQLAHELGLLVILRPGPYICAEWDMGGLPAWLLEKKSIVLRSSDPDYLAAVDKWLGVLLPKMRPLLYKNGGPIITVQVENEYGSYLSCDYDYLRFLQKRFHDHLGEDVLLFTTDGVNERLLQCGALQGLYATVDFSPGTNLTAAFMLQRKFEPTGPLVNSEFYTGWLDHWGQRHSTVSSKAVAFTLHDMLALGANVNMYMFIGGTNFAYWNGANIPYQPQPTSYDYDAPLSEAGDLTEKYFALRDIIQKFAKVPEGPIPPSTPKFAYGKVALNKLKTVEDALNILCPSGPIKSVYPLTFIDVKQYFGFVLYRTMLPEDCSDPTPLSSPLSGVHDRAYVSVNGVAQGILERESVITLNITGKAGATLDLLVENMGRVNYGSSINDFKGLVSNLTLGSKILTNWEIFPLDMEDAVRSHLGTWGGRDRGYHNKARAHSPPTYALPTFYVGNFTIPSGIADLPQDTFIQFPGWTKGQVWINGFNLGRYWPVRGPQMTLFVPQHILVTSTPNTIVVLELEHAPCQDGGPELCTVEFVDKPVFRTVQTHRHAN
Nature of the assay: Inhibitory activity against beta-galactosidase in bovine liver at 1 mM.

Assay [8] addresses Alpha-galactosidase (Oryza sativa Japonica Group) (UniProt Q9FXT4). Description: Inhibitory activity against alpha-galactosidase in rice at 1 mM.
Assay [9] concerns the target Alpha-galactosidase (Coffea arabica) (UniProt Q5DUH8). Nature of the assay: Inhibitory activity against alpha-galactosidase in coffee beans at 1 mM.
Assay [10] deals with Beta-hexosaminidase (Canavalia ensiformis). Description: Inhibitory activity against beta-N-acetylglucosaminidase in jack beans at 1 mM.
Assay [11] has as its target T5, Glucoamylase 1 (Rhizopus oryzae) (UniProt P07683).
T5 sequence (whole entry): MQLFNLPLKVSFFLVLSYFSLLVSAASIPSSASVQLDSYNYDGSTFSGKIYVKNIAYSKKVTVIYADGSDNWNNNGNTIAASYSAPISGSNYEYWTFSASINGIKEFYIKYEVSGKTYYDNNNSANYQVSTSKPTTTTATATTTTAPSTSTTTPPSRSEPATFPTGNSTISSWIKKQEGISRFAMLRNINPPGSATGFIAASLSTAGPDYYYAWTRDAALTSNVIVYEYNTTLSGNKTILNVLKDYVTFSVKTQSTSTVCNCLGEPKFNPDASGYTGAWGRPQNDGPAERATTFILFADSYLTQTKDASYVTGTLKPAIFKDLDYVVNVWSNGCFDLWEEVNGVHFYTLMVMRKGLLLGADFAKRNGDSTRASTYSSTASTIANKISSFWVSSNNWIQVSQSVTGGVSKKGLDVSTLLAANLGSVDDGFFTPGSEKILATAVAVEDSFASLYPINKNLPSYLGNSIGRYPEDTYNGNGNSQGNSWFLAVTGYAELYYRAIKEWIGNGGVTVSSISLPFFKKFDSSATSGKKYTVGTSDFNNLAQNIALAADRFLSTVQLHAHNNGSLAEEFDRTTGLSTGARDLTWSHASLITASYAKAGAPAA
Description: Inhibitory activity against amyloglucosidase in Rhizopus mold at 1 mM.

Assay [12] addresses T6, Exo-1,4-beta-xylosidase xlnD (Aspergillus niger) (UniProt O00089).
T6 sequence (whole entry): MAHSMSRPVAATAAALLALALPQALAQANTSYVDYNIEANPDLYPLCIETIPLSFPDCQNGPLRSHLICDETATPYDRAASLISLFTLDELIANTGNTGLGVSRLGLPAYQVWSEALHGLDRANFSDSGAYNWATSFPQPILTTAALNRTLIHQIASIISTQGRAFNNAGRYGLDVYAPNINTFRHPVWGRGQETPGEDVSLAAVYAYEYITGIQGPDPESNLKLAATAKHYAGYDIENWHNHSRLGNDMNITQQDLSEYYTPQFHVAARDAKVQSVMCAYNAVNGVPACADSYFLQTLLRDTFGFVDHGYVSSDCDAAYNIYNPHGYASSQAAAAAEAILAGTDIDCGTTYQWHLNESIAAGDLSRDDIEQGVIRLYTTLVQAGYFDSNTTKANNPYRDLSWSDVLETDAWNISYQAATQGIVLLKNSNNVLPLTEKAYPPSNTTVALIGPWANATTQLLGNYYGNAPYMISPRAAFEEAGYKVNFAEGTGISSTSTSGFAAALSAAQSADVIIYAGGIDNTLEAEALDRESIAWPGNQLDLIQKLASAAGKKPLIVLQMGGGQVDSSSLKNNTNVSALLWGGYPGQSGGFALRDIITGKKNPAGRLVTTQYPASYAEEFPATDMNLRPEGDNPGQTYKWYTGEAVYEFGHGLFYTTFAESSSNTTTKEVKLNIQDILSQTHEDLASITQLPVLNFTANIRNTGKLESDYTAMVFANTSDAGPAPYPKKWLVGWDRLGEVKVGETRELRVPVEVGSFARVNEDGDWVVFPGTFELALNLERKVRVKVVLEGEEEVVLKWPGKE
Description: Inhibitory activity against beta-xylosidase in Aspergillus niger at 1 mM.

In the next assay the test system is Saccharomyces cerevisiae. Description: Inhibitory activity against alpha-glucosidase in yeast. The note with it: concentration not given here.

Chain of Glucoamylase (Aspergillus niger) (P69328 whole entry): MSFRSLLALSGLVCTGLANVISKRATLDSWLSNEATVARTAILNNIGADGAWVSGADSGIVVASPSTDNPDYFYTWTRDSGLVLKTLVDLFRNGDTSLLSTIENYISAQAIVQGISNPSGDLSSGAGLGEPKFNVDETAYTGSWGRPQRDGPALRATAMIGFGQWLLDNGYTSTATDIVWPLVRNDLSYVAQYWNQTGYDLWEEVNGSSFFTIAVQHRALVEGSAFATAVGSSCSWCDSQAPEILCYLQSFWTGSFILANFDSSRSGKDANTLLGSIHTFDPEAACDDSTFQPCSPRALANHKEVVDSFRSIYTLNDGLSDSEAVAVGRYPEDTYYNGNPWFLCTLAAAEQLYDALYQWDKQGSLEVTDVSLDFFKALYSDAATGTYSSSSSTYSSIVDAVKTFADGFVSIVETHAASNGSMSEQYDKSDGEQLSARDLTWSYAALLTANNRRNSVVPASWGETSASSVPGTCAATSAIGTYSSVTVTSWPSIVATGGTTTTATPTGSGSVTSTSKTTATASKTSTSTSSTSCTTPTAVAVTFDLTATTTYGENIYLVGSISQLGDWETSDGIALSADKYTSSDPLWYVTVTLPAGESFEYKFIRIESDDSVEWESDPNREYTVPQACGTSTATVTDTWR
Chain of Alpha-galactosidase (Coffea arabica) (Q5DUH8 as listed by the source): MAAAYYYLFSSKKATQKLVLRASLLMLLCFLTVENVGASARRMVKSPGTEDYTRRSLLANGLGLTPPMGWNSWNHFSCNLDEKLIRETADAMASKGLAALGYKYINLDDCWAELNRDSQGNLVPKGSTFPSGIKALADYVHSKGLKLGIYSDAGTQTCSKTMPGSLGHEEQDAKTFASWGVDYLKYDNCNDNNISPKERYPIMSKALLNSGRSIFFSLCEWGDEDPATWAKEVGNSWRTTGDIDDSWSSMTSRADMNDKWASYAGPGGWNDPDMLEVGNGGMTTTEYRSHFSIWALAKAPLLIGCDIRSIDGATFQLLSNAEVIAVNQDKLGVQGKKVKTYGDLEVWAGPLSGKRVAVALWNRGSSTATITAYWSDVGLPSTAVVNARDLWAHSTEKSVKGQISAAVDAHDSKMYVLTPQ
Chain of Alpha-galactosidase (Oryza sativa Japonica Group) (Q9FXT4 whole entry): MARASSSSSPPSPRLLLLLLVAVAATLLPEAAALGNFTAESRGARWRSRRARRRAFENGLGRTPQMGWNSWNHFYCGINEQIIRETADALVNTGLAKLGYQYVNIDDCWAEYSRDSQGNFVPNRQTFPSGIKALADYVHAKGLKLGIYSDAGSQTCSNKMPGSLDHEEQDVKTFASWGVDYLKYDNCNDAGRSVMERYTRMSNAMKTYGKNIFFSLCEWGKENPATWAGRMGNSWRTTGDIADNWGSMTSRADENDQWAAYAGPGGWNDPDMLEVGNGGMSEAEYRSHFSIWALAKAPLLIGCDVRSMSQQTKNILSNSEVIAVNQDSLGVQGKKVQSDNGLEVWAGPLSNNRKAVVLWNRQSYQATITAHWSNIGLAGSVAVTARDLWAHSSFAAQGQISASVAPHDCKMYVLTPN

By inhibition is commonly meant the percentage by which the read-out fell short of the control. Low values mean little suppression, high ones strong suppression. In the case of `CC1(O)C(=O)N2CCCC2C1O` (configuration not stated), the result in assay [1], in assay [2], in [3], in assay [4], in [5] and in assay [6] was inactive. Further, the outcome in [7], in [8], in assay [9], in [10], in [11] and in [12] was inactive. In the assay with Saccharomyces cerevisiae, this molecule yielded an inhibition of 45%.

Consider `CC(C)[C@@H]1NC(=O)C(C)(O)C1O` (some centres not stated), for which the result in assay [1], in assay [2], in assay [3], in assay [4], in assay [5] and in assay [6] was inactive. Further, the outcome in assay [7], in [8], in [9], in [10], in assay [11] and in assay [12] was inactive. Moreover, the inhibition in the assay with Saccharomyces cerevisiae was determined as 51%.

With `C[C@@H]1NC(=O)C(C)(O)C1O` (some centres not stated), the result in [1], in assay [2], in assay [3], in [4], in [5] and in assay [6] was inactive. Moreover, the result in [7], in assay [8], in assay [9], in assay [10], in assay [11] and in assay [12] was inactive. For the same molecule, in the assay with Saccharomyces cerevisiae, the inhibition was 48%.

Take `C[C@@H]1CNC(=O)C(C)(O)C1O` (some centres not stated): the outcome in assay [1], in assay [2], in assay [3], in assay [4], in assay [5] and in assay [6] was inactive. For the same molecule, the result in assay [7], in assay [8], in [9], in assay [10], in assay [11] and in [12] was inactive. Further, the inhibition with Saccharomyces cerevisiae is 46%.
